Article PMC10470178, “Long-acting lenacapavir protects macaques against intravenous challenge with simian-tropic HIV” (eBioMedicine, 2023)

Key:
[1] = tested on: HIV-1 NL4-3; assay: Multi-round viral replication assay in SupT1-CCR5 cells, HIV-1 NL4-3; type: cell-based; conditions: Human immunodeficiency virus 1, NL43, 168 h, supernatant vRNA 7 days post-infection, mean ± SD of three independent experiments, read-out: mean EC50 against HIV-1 NL4-3
Procedure: (§1) Infectious stocks of stHIV-A19,[23] HIV-1 NL4-3, and SIVmac239 were produced in HEK-293T (RRID: CVCL_1926) cells transfected with full-length viral genome plasmids using the TransIT HEK-293 transfection reagent (Mirus Bio) according to the manufacturer’s instructions. Virus stock infectious titres were determined on TZM-bl reporter cells (RRID: CVCL_B478) as previously described.[26] For experiments using SupT1-CCR5 target cells (RRID: CVCL_X633),[27] cultures were maintained in RPMI 1640 medium supplemented with 10% foetal bovine serum (FBS), 2 mM glutamine, 100 U/ml penicillin, and 100 μg/ml streptomycin. […] Cells were then washed three times to remove input virus, counted, and cultured in triplicate in growth media containing serial threefold dilutions of LEN or no LEN (control). […] Culture supernatants were collected 7 days post-inoculation, clarified by centrifugation, and stored at −80 °C for later quantification of vRNA by quantitative reverse transcription polymerase chain reaction (qRT-PCR). […] The stHIV-A19 stock was quantified with a SYBR Green-based qPCR-based product-enhanced RT (PERT) assay using a purified reverse transcriptase (RT) protein standard, as previously described.[28] […] After 7 days, the virus in culture supernatants was quantified using the PERT assay. […]

[2] = tested on: stHIV-A19; assay: Multi-round replication assay of stHIV-A19 in primary human PBMCs (PERT readout); type: cell-based, simian-tropic HIV-1; conditions: three donors, RT in supernatant at 7 days
Procedure: as §1

CC(C)(C#Cc1ccc(-c2ccc(Cl)c3c(NS(C)(=O)=O)nn(CC(F)(F)F)c23)c([C@H](Cc2cc(F)cc(F)c2)NC(=O)Cn2nc(C(F)(F)F)c3c2C(F)(F)[C@@H]2C[C@H]32)n1)S(C)(=O)=O [LEN, Lenacapavir]
EC50 [1]: 0.086 nM
mean EC95 against stHIV-A19 in human PBMC ([2]; calculated from EC50 with Hill coefficient 3.51): 122 ± 31 pM
mean EC95 against stHIV-A19 in human PBMC ([2]; calculated from EC50 with Hill coefficient 3.51, listed as Lenacapavir): 122 (±31 SD) pM
